Measured values published in US8383554B2, “Quantitative microarray of intact glycolipid CD1d interaction and correlation with cell-based cytokine production” (Academia Sinica, priority 2008, dated 2013).
pKd, pKi: −log10 of the molar value. Entries after “also recorded” stand apart in the source; their conditions may differ. Where two headings read alike, the source gives them in different places.

How the values were obtained:
[1] = biological target: T1, mCD1d:Ig fusion protein (CD1d) (Mus musculus, UniProt P11609); assay: Competitive binding assay on microarray (Ki in solution); conditions: for binding to CD1d in competition assay (in words): relative to α-GalCer or parent compound; for pKi: competition against surface compound 1, CD1d ~100-200 nM
T1 construct: purchased BD Bioscience
T1 sequence (P11609 22-305 limits assumed): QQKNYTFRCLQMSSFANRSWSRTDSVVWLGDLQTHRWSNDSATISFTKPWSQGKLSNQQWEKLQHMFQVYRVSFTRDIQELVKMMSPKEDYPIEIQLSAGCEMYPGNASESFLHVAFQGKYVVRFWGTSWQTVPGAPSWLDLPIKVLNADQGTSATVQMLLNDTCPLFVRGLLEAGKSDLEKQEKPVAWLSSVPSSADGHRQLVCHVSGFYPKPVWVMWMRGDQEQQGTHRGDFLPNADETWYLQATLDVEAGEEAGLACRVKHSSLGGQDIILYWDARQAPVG
T1 sequence (P01887 21-119 partner): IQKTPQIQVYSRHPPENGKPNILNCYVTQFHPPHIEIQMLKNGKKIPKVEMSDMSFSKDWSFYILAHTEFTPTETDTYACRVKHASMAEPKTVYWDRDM
Excerpt: Determination of Ki. The solution equilibrium dissociation constant (Ki) for glycolipid-CD1d interactions can be determined using microarrays in a competitive assay. The equation that describes the binding of the two ligands to the same site on the protein is identical to that for the competitive inhibition of an enzyme-catalyzed reaction. It is possible to take advantage of the convenience of IC50 measurements and still report inhibitory potency in terms of true Ki values. The final forms of the relationship can be expressed as
In this assay, the concentration of the protein is kept constant at or near the KD, surf (˜100-200 nM of CD1d). The glass slide is incubated with solutions containing varying concentrations of the glycolipid (covering about two orders of magnitude) and the protein.
Microarray Fabrication. Microarrays were printed (Genomic Solutions, Gene Machine) by robotic pin (SMP2B, TeleChem International Inc.). Approximately […] of various concentrations of amine-containing compounds 1-4 in DMSO were deposited onto slides from a 384 well plate. The slide for: (1) the scope of printing concentration studies: NHS-coated glass slides were printed with compounds 1-4 at 20 different concentrations (1000, 800, 600, 400, 200, 100, 80, 60, 40, 20, 10, 8, 6, 4, 2, 1, 0.8, 0.6, 0.4, 0.2 μM) from right to left with 10 replicates vertically placed in each sub-array. Six identical sub-arrays were fabricated in a 1×6 pattern and each sub-array consisted of a 20×10 pattern of spots, with a 0.3 mm pitch. After 2 h, the surface of the slide was divided by permanent marker to avoid contamination for later protein incubation; (2) the slide for FIG. 2 was printed with compound 1 with concentrations of 1000 (left most column), 900, 800, 700, 600, 500, 400, 300, 200, 100, 80, 60, 40, 20, 10, 5 μM (right-most column, 16 different conc.) with 16 replicates vertically placed in each grid, and totally 16 replicate (8×2 pattern) sub-arrays in one slide; (3) the slides for Ki determinations: the slides were printed of compound 1 with concentration of 1000, 900, 800 μM from right to left 81 replicates placed in each grid (9×9 pattern) and totally 44 sub-arrays replicates (4×11 pattern, each subarray is approximately 5 mm (width)×6 mm (length) area) in one slide. After 24 hours reaction, the slides were washed with PBST buffer (0.05% Tween 20) for 30 min and then blocked with blocking solution (super-block blocking buffer in PBS, Pierce) for another 1 h. The slides were dried under a flow of argon gas and stored at room temperature in a desiccator. The slides were washed with PBS buffer (pH 7.4) before use.
Competitive Binding Assay. Solutions of the competitors at different concentration (400 to 0.1 μM) were prepared and 5 μl aliquots incubated with protein (5 μl, 100˜250 nM). The mixture was then placed in a 384 well microtiter plate, covered, and left for five to eight hours. An aliquot of this solution (8 μL) was loaded onto the slides and incubated for 1 hour under a humidifying container at room temperature. The following procedure is the same as above the direct binding assay in washing procedure and applying secondary antibody. To get the data, Each inhibitor was assayed under this system at least three times and average Ki values are reported.
Data analysis. Extraction of spot intensity data was performed using ArrayVision 8.0 (Applied Precision). The background, calculated as the median of pixel intensities from the local area around each spot, was subtracted from the mean pixel intensity within each spot. To graphically represent the data, the values of the background-subtracted signal intensities were plotted against the known concentration of the protein spotted in the array, using the commercial non-linear regression program GraphPad PRISM 4 (GraphPad, San Diego). The values obtained from the competition assay were plotted against the known concentrations of the competitors applied on the slide. […]

[2] = test system: human Vα24+ NKT cell line co-cultured with Hela cells transfected with human CD1d; assay: Cytokine secretion assay using human NKT cell lines, IFN-γ by ELISA; format: cell-based; conditions: 10 ng/ml glycolipid, 24 hours; for IFN-γ secretion (in words): relative to α-GalCer
Experimental: Generation of Vα24+ human NKT cell lines. Human NKT cell lines, expressing the Vα24+ T cell receptor (TCR), were generated as follows: Vα24+ T cells and CD14+ cells were isolated from leukopaks using magnetic beads (Miltenyi biotec, Auburn, Calif.) coupled to an anti-Vα24+ TCR monoclonal antibody and an anti-CD14 monoclonal antibody, respectively. Immature dendritic cells were generated from the CD14+ cells after a three-day incubation in the presence of 300 U/ml GM-CSF (R&D systems, Minneapolis, Minn.) and 100 U/ml IL-4 (R&D systems, Minneapolis, Minn.). Following irradiation with 3000 rads, the immature dendritic cells were co-cultured with syngeneic Vα24+ T cells in the presence of 100 ng/ml of α-galactosylceramide and 10 IU/ml of IL-2 (R&D systems, Minneapolis, Minn.) for 10 days.
Cytokine Secretion Assay using human NKT cell lines. Twenty-thousand cells of a human NKT cell line and 2×10^4 Hela cells transfected with human CD1d that had been irradiated for 10,000 rads, were co-cultured in the presence of 10 ng/ml of each glycolipid in a 96-well plate. After culture for 24 hours, the concentration of IFN-γ or IL-4 in the culture supernatants was determined by ELISA (BD Pharmingen, San Diego, Calif.).

[3] = Water solubility of glycolipids; format: physicochemical
CD1d [4] = conditions: read-out: dissociation constant from IEF; cited from earlier work
CD1d [5] = conditions: read-out: dissociation constant from ITC; cited from earlier work

SMILES	binding to CD1d in competition assay (in words) [1]	IFN-γ secretion (in words) [2]	selectivity IFN-γ vs IL-4 (in words) [2]	also measured
CCCCCCCCCCCCCC[C@@H](O)[C@@H](O)[C@H](CO[C@H]1O[C@H](CO)[C@H](O)[C@H](O)[C@H]1O)NC(=O)CCCCCCc1ccccc1 [Compound 12]	about one order of magnitude stronger with CD1d than α-GalCer			
CCCCCCCCCCCCCC[C@@H](O)[C@@H](O)[C@H](CO[C@H]1O[C@H](CO)[C@H](O)[C@H](O)[C@H]1O)NC(=O)CCCCCCCc1ccccc1 [Compound 13]	about one order of magnitude stronger with CD1d than α-GalCer	peak IFN-γ secretions among the spacer chain elongation in acyl modification (11-17)		
CCCCCCCCCCCCCC[C@@H](O)[C@@H](O)[C@H](CO[C@H]1O[C@H](CO)[C@H](O)[C@H](O)[C@H]1O)NC(=O)CCCCCCCCCCc1ccccc1 [Compound 16]	about one order of magnitude stronger with CD1d than α-GalCer			
CCCCCCCCCCCCCC[C@@H](O)[C@@H](O)[C@H](CO[C@H]1O[C@H](CO)[C@H](O)[C@H](O)[C@H]1O)NC(=O)CCCCCCCCCCCCCCc1ccccc1 [Compound 17]	weaker affinities to CD1d	less IFN-γ production	low selectivity between IFN-γ and IL-4	
CCCCCCCCCCCCCC[C@@H](O)[C@@H](O)[C@H](CO[C@H]1O[C@H](CO)[C@H](O)[C@H](O)[C@H]1O)NC(=O)CCCCCCCc1ccc(F)cc1 [Compound 18]	bind most strongly to CD1d; also recorded: enhance the binding by approximately one order of magnitude, compared with parent compound 13	induce the most IFN-γ secretions; also recorded: highest IFN-γ cytokine production, more than double that of the α-GalCer induced IFN-γ secretion	more than three times more selective for IFN-γ release	pKi [1]: 6.85; binding to CD1d in competition assay (in words) ([1]; listed as para-fluoroheptaphenyl-modified α-GalCer): two orders of magnitude stronger than α-GalCer
CCCCCCCCCCCCCC[C@@H](O)[C@@H](O)[C@H](CO[C@H]1O[C@H](CO)[C@H](O)[C@H](O)[C@H]1O)NC(=O)CCCCCCCc1ccc(OC)cc1 [Compound 19]		highest IFN-γ cytokine production, more than double that of the α-GalCer induced IFN-γ secretion		
CCCCCCCCCCCCCC[C@@H](O)[C@@H](O)[C@H](CO[C@H]1O[C@H](CO)[C@H](O)[C@H](O)[C@H]1O)NC(=O)CCCCCCCc1ccc(-c2ccccc2)cc1 [Compound 21]	lower binding activity; also recorded: weaker affinities to CD1d	less IFN-γ production	low selectivity between IFN-γ and IL-4	
CCCCCCCCCCCCCC[C@@H](O)[C@@H](O)[C@H](CO[C@H]1O[C@H](CO)[C@H](O)[C@H](O)[C@H]1O)NC(=O)CCCCCCCCCCc1ccc(-c2ccccc2)cc1 [Compound 25]	lower binding activity			
CCCCCCCCCCCCCCCCCCCCCCCCCC(=O)N[C@@H](CO[C@H]1O[C@H](CO)[C@H](O)[C@H](O)[C@H]1O)[C@H](O)[C@H](O)CCc1ccccc1 [Compound 26]	weaker agonist of mCD1d			
CCCCCCCCCCCCCCCCCCCCCCCCCC(=O)N[C@@H](CO[C@H]1O[C@H](CO)[C@H](O)[C@H](O)[C@H]1O)[C@H](O)[C@H](O)CCCCCCCCCCCCCC [α-GalCer, α-galactosyl ceramide]				pKi [1]: 4.85; solubility in aqueous solution (in words) [3]: low solubility; pKd (CD1d [4]): 5.23; pKd (CD1d [5]): 5.01
